Earlier results as cited in publication PMC4408534 (Journal of nuclear medicine : official publication, Society …, 2014).

Columns and labels:
[1] = test system: human SSTR2-transfected cell membranes; details: ± SEM, ref [27]
[2] = test system: rat SSTR2 expressed in AR42J membranes; details: ref [28]

C[C@@H](O)[C@H](NC(=O)[C@@H]1CSSC[C@H](NC(=O)[C@@H](Cc2ccccc2)NC(=O)CN2CCN(CC(=O)[O-])CCN(CC(=O)[O-])CCN(CC(=O)[O-])CC2)C(=O)N[C@@H](Cc2ccc(O)cc2)C(=O)N[C@H](Cc2c[nH]c3ccccc23)C(=O)N[C@@H](CCCCN)C(=O)N[C@@H]([C@@H](C)O)C(=O)N1)C(=O)O.[177Lu+3] [177-Lu-Dotatate, Lu-177-Tyr3-octreotate]
binding affinity, human SSTR2 [1]: 1.5 ± 0.4 nM | binding affinity, rat SSTR2 [2]: 0.21 to 0.23 nM
